Measured values from PubChem BioAssay (NCI).
Where “and” joins values, the source holds several entries; their conditions need not be identical. Equal entries are not always repeated.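 Growth conditions: 96-well plates. Treatment: test compound, 48 hours, 5 concentrations. Analysis: linear interpolation between bracketing concentrations; unreached endpoints set to highest concentration. The concentration for 50% growth inhibition is given as GI50. TGI marks complete inhibition of growth.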

Experiments:
Experiment in all cases: NCI tumour cell line growth inhibition, 48 h
HT29 colon = test system: HT29 colon
SK-MEL-2 melanoma = test system: SK-MEL-2 melanoma
SF-539 CNS = test system: SF-539 CNS
NCI/ADR-RES ovarian = test system: NCI/ADR-RES ovarian
HCT-116 colon = test system: HCT-116 colon
DU-145 prostate = test system: DU-145 prostate
ACHN renal = test system: ACHN renal
OVCAR-4 ovarian = test system: OVCAR-4 ovarian
PC-3 prostate = test system: PC-3 prostate
MALME-3M melanoma = test system: MALME-3M melanoma

| SMILES | GI50 (HT29 colon) | TGI (HT29 colon) | GI50 (SK-MEL-2 melanoma) | TGI (SK-MEL-2 melanoma) | GI50 (SF-539 CNS) | TGI (SF-539 CNS) | TGI (NCI/ADR-RES ovarian) | GI50 (HCT-116 colon) | TGI (HCT-116 colon) | GI50 (DU-145 prostate) | TGI (DU-145 prostate) | GI50 (ACHN renal) | TGI (ACHN renal) | GI50 (OVCAR-4 ovarian) | TGI (OVCAR-4 ovarian) | GI50 (PC-3 prostate) | TGI (PC-3 prostate) | GI50 (MALME-3M melanoma) | TGI (MALME-3M melanoma) | GI50 (NCI/ADR-RES ovarian) |
| --- | --- | --- | --- | --- | --- | --- | --- | --- | --- | --- | --- | --- | --- | --- | --- | --- | --- | --- | --- | --- |
| [N-]=[N+]=CC(=O)CCC(N)C(=O)O (configuration not stated) | 727 nM | 75.7 µM | 24600 nM | 245 µM | 6310 nM | 48700 nM and > 250000 nM | > 245 µM | 457 nM and 955 nM | > 250 µM | 5580 nM | > 250 µM | 5540 nM | > 250 µM | 4200 nM | > 206 µM | 29800 nM | > 250 µM | 7270 nM | > 250 µM | – |
| COc1cc(/C=N/NC(=O)c2cnn3c2NC(c2ccccc2)C3)ccc1OC1CCCC1 (configuration not stated) | 467 nM | 8.55 µM | 948 nM | 6.06 µM | 537 nM | 1990 nM | 4.35 µM | 518 nM | 3.46 µM | 1060 nM | 7.03 µM | 666 nM | 6.04 µM | 2010 nM | 7.75 µM | 503 nM | 3.44 µM | 1020 nM | 4.28 µM | 884 nM |
| Cn1c(COC(=O)NCCn2ccnc2)nc2c(N3CCOCC3)nc(-c3ccccc3)nc21 | 372 nM | 1.47 µM | 1680 nM | 3.3 µM | 1170 nM | 2400 nM | 5.09 µM | 136 nM | 0.351 µM | 888 nM | 2.13 µM | 353 nM | 1.31 µM | 692 nM | 1.97 µM | 751 nM | 2.14 µM | 1380 nM | 2.72 µM | 1540 nM |
| O=C1C(=O)c2c(nc3ccc(C(F)(F)F)cn23)-c2ccccc21 | 923 nM | 3.61 µM | 209 nM | 0.434 µM | 169 nM | 313 nM | 0.581 µM | 176 nM | 0.354 µM | 185 nM | 0.345 µM | 185 nM | 0.381 µM | 137 nM | 0.271 µM | 210 nM | 0.761 µM | 158 nM | 0.295 µM | 230 nM |
| COc1c2ccoc2nc2c(OC)c(OCC(O)C(C)(C)O)ccc12 (configuration not stated) | – | > 100 µM | – | > 100 µM | – | > 100000 nM | > 100 µM | – | > 100 µM | – | > 100 µM | – | > 100 µM | – | > 100 µM | – | > 100 µM | – | > 100 µM | – |
| COc1cc(C2CC(c3ccc(Nc4nc(NCCO)nc(NCCO)n4)cc3)=NN2c2cc(Cl)cc(Cl)c2)cc(OC)c1OC (configuration not stated) | 1520 nM | 3.25 µM | 15500 nM | 28.9 µM | 1200 nM | 2570 nM | 12.8 µM | 1280 nM | 2.67 µM | 1840 nM | 4.11 µM | 2580 nM | 13.1 µM | 1630 nM | 3.66 µM | 1040 nM | 3.61 µM | 1960 nM | 3.84 µM | 3370 nM |
| Cc1n[nH]c2ccccc2c1=O | – | > 100 µM | – | > 100 µM | – | > 100000 nM | > 100 µM | – | > 100 µM | – | > 100 µM | – | > 100 µM | – | > 100 µM | – | > 100 µM | – | > 100 µM | – |
| O=C1NC(=NCCc2ccc(Cl)cc2)S/C1=C\c1ccc2ncccc2c1 | > 13000 nM | > 25 µM | 8280 nM | > 25 µM | 15900 nM | > 25000 nM | > 25 µM | 9140 nM | > 25 µM | 24400 nM | > 25 µM | 24600 nM | > 25 µM | 8940 nM | > 25 µM | > 25000 nM | > 25 µM | > 25000 nM | > 25 µM | 19500 nM |
| C[C@@H]1C[C@@H]([C@H](O)CC2CC(=O)NC(=O)C2)C(=O)[C@@H](C)C1 | 272 nM | 1.97 µM and 2.4 µM | 164 nM | 1.07 µM and 3.27 µM | 214 nM | 2700 nM and 838 nM | 9.16 µM | 197 nM | 4.35 µM and 1.42 µM | 247 nM | – | 155 nM | – | 299 nM | 4.97 µM and 1.2 µM | 243 nM | 4.51 µM | 235 nM | 4.7 µM and 3.5 µM | 358 nM |
